Laboratory results published in paper PMC2644263 (Molecular cell, 2008).

Target: Bub1 (Homo sapiens, UniProt O43683)
Test: in vitro […] kinase assay with purified kinase, […] ATP, phosphoimager
Format: biochemical

Chain of Bub1 (O43683 724-1085): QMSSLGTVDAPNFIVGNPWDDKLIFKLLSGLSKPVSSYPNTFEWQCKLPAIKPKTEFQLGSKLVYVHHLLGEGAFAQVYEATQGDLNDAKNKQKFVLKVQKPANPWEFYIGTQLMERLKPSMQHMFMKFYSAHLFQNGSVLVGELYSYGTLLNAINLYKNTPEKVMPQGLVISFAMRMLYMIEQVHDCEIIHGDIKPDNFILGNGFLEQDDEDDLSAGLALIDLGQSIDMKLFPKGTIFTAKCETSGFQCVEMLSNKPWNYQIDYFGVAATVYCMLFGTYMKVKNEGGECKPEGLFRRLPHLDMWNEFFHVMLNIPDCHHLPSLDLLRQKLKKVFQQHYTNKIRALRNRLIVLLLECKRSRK

IC50: ~250 nM
SMILES: CC(C)(C)n1nc(Cc2ccccc2O)c2c(N)ncnc21 [2OH-BNPP1]
